Experimental data: ChEMBL document CHEMBL1144896 (2003)

Legend:
NCI-H1299 [1] = test: hTERT-SEAP (Human telomerase reverse transcriptase-SEAP) activity in non-small cell lung cancer H1299 cell at 2.6 uM concentration and level of cell viability determined in MTT assay; type: functional
NCI-H1299 [2] = test: hTERT-SEAP (Human telomerase reverse transcriptase-SEAP) activity in non-small cell lung cancer H1299 cell at 260.0 uM concentration and level of cell viability determined in MTT assay; type: functional
BJ [3] = test: Compound was tested for human telomerase reverse transcriptase-SEAP (hTERT-SEAP) activity in immortalized hTERT-BJI at 260.0 uM concentration; type: functional
NCI-H1299 [4] = test: Compound was tested for human telomerase reverse transcriptase-SEAP (hTERT-SEAP) activity in non-small cell lung cancer H1299 cell at 26 uM concentration; type: functional
BJ [5] = test: hTERT-SEAP (Human telomerase reverse transcriptase-SEAP) activity in immortalized hTERT-BJI at 26 uM concentration and level of cell viability determined in MTT assay; type: functional
NCI-H1299 [6] = test: Compound was tested for human telomerase reverse transcriptase-SEAP (hTERT-SEAP) activity in non-small cell lung cancer H1299 cell at 260.0 uM concentration; type: functional
BJ [7] = test: Compound was tested for human telomerase reverse transcriptase-SEAP (hTERT-SEAP) activity in immortalized hTERT-BJI at 26 uM concentration; type: functional
NCI-H1299 [8] = test: hTERT-SEAP (Human telomerase reverse transcriptase-SEAP) activity in non-small cell lung cancer H1299 cell at 26 uM concentration and level of cell viability determined in MTT assay; type: functional
NCI-H1299 [9] = test: Compound was tested for human telomerase reverse transcriptase-SEAP (hTERT-SEAP) activity in non-small cell lung cancer H1299 cell at 2.6 uM concentration; type: functional
BJ [10] = test: hTERT-SEAP (Human telomerase reverse transcriptase-SEAP) activity in immortalized hTERT-BJI at 260.0 uM concentration and level of cell viability determined in MTT assay; type: functional
BJ [11] = test: Compound was tested for human telomerase reverse transcriptase-SEAP (hTERT-SEAP) activity in immortalized hTERT-BJI at 2.2 uM concentration; type: functional
BJ [12] = test: Compound was tested for human telomerase reverse transcriptase-SEAP (hTERT-SEAP) activity in immortalized hTERT-BJI at 22 uM concentration; type: functional
BJ [13] = test: hTERT-SEAP (Human telomerase reverse transcriptase-SEAP) activity in immortalized hTERT-BJI at 220.0 uM concentration and level of cell viability determined in MTT assay; type: functional
NCI-H1299 [14] = test: Compound was tested for human telomerase reverse transcriptase-SEAP (hTERT-SEAP) activity in non-small cell lung cancer H1299 cell at 220.0 uM concentration; type: functional
NCI-H1299 [15] = test: Compound was tested for human telomerase reverse transcriptase-SEAP (hTERT-SEAP) activity in non-small cell lung cancer H1299 cell at 2.2 uM concentration; type: functional
BJ [16] = test: pPCMV-SEAP (cytomegalovirus-SEAP) activity in immortalized hTERT-BJ1 at 22 uM concentration and level of cell viability determined in MTT assay; type: functional, Homo sapiens
BJ [17] = test: pPCMV-SEAP (cytomegalovirus-SEAP) activity in immortalized hTERT-BJ1 at 2.2 uM concentration and level of cell viability determined in MTT assay; type: functional, Homo sapiens
BJ [18] = test: Compound was tested for human telomerase reverse transcriptase-SEAP (hTERT-SEAP) activity in immortalized hTERT-BJI at 220.0 uM concentration; type: functional
NCI-H1299 [19] = test: hTERT-SEAP (Human telomerase reverse transcriptase-SEAP) activity in non-small cell lung cancer H1299 cell at 22 uM concentration and level of cell viability determined in MTT assay; type: functional
BJ [20] = test: hTERT-SEAP (Human telomerase reverse transcriptase-SEAP) activity in immortalized hTERT-BJI at 22 uM concentration and level of cell viability determined in MTT assay; type: functional
NCI-H1299 [21] = test: Compound was tested for human telomerase reverse transcriptase-SEAP (hTERT-SEAP) activity in non-small cell lung cancer H1299 cell at 22 uM concentration; type: functional
BJ [22] = test: pPCMV-SEAP (cytomegalovirus-SEAP) activity in immortalized hTERT-BJ1 at 220 uM concentration and level of cell viability determined in MTT assay; type: functional, Homo sapiens
BJ [23] = test: Compound was tested for cytomegalovirus or (pPCMV-SEAP) activity in immortalized hTERT-BJ1 at 220 uM concentration; type: functional, Homo sapiens
BJ [24] = test: hTERT-SEAP (Human telomerase reverse transcriptase-SEAP) activity in immortalized hTERT-BJI at 2.2 uM concentration and level of cell viability determined in MTT assay; type: functional
BJ [25] = test: Compound was tested for cytomegalovirus or (pPCMV-SEAP) activity in immortalized hTERT-BJ1 at 2.2 uM concentration; type: functional, Homo sapiens
NCI-H1299 [26] = test: hTERT-SEAP (Human telomerase reverse transcriptase-SEAP) activity in non-small cell lung cancer H1299 cell at 220.0 uM concentration and level of cell viability determined in MTT assay; type: functional
NCI-H1299 [27] = test: hTERT-SEAP (Human telomerase reverse transcriptase-SEAP) activity in non-small cell lung cancer H1299 cell at 2.2 uM concentration and level of cell viability determined in MTT assay; type: functional
BJ [28] = test: Compound was tested for cytomegalovirus or (pPCMV-SEAP) activity in immortalized hTERT-BJ1 at 22 uM concentration; type: functional, Homo sapiens
NCI-H1299 [29] = test: (§1) Compound was tested for human telomerase reverse transcriptase-SEAP (hTERT-SEAP) activity in non-small cell lung cancer H1299 cell at 2.3 uM concentration; type: functional
NCI-H1299 [30] = test: Compound was tested for human telomerase reverse transcriptase-SEAP (hTERT-SEAP) activity in non-small cell lung cancer H1299 cell at 230.0 uM concentration; type: functional
NCI-H1299 [31] = test: as §1; type: functional; remark: listed apart in the source
BJ [32] = test: Compound was tested for human telomerase reverse transcriptase-SEAP (hTERT-SEAP) activity in immortalized hTERT-BJI at 230.0 uM concentration; type: functional
NCI-H1299 [33] = test: Compound was tested for human telomerase reverse transcriptase-SEAP (hTERT-SEAP) activity in non-small cell lung cancer H1299 cell at 23 uM concentration; type: functional
NCI-H1299 [34] = test: hTERT-SEAP (Human telomerase reverse transcriptase-SEAP) activity in non-small cell lung cancer H1299 cell at 230.0 uM concentration and level of cell viability determined in MTT assay; type: functional
NCI-H1299 [35] = test: (§2) hTERT-SEAP (Human telomerase reverse transcriptase-SEAP) activity in non-small cell lung cancer H1299 cell at 2.3 uM concentration and level of cell viability determined in MTT assay; type: functional
NCI-H1299 [36] = test: hTERT-SEAP (Human telomerase reverse transcriptase-SEAP) activity in non-small cell lung cancer H1299 cell at 23 uM concentration and level of cell viability determined in MTT assay; type: functional
BJ [37] = test: Compound was tested for human telomerase reverse transcriptase-SEAP (hTERT-SEAP) activity in immortalized hTERT-BJI at 23 uM concentration; type: functional
BJ [38] = test: hTERT-SEAP (Human telomerase reverse transcriptase-SEAP) activity in immortalized hTERT-BJI at 230.0 uM concentration and level of cell viability determined in MTT assay; type: functional
BJ [39] = test: hTERT-SEAP (Human telomerase reverse transcriptase-SEAP) activity in immortalized hTERT-BJI at 23 uM concentration and level of cell viability determined in MTT assay; type: functional
NCI-H1299 [40] = test: as §2; type: functional; remark: listed apart in the source
BJ [41] = test: hTERT-SEAP (Human telomerase reverse transcriptase-SEAP) activity in immortalized hTERT-BJI at 24 uM concentration and level of cell viability determined in MTT assay; type: functional
NCI-H1299 [42] = test: Compound was tested for human telomerase reverse transcriptase-SEAP (hTERT-SEAP) activity in non-small cell lung cancer H1299 cell at 24 uM concentration; type: functional
NCI-H1299 [43] = test: hTERT-SEAP (Human telomerase reverse transcriptase-SEAP) activity in non-small cell lung cancer H1299 cell at 24 uM concentration and level of cell viability determined in MTT assay; type: functional
NCI-H1299 [44] = test: Compound was tested for human telomerase reverse transcriptase-SEAP (hTERT-SEAP) activity in non-small cell lung cancer H1299 cell at 2.4 uM concentration; type: functional
NCI-H1299 [45] = test: hTERT-SEAP (Human telomerase reverse transcriptase-SEAP) activity in non-small cell lung cancer H1299 cell at 2.4 uM concentration and level of cell viability determined in MTT assay; type: functional
BJ [46] = test: Compound was tested for human telomerase reverse transcriptase-SEAP (hTERT-SEAP) activity in immortalized hTERT-BJI at 240.0 uM concentration; type: functional
NCI-H1299 [47] = test: hTERT-SEAP (Human telomerase reverse transcriptase-SEAP) activity in non-small cell lung cancer H1299 cell at 240.0 uM concentration and level of cell viability determined in MTT assay; type: functional
BJ [48] = test: hTERT-SEAP (Human telomerase reverse transcriptase-SEAP) activity in immortalized hTERT-BJI at 240.0 uM concentration and level of cell viability determined in MTT assay; type: functional
NCI-H1299 [49] = test: Compound was tested for human telomerase reverse transcriptase-SEAP (hTERT-SEAP) activity in non-small cell lung cancer H1299 cell at 240.0 uM concentration; type: functional
BJ [50] = test: Compound was tested for human telomerase reverse transcriptase-SEAP (hTERT-SEAP) activity in immortalized hTERT-BJI at 2.4 uM concentration; type: functional
BJ [51] = test: Compound was tested for human telomerase reverse transcriptase-SEAP (hTERT-SEAP) activity in immortalized hTERT-BJI at 24 uM concentration; type: functional

## CCCC(=O)Oc1cccc2c1C(=O)c1cccc(OC(=O)CCC)c1C2=O
NCI-H1299 [1]
  Relative viability: 107%
NCI-H1299 [2]
  Relative viability: 87%
BJ [3]
  Relative SEAP activity: 134%
NCI-H1299 [4]
  Relative SEAP activity: 118%
BJ [5]
  Relative viability: 106%
NCI-H1299 [6]
  Relative SEAP activity: 111%
BJ [7]
  Relative SEAP activity: 119%
NCI-H1299 [8]
  Relative viability: 106%
NCI-H1299 [9]
  Relative SEAP activity: 114%
BJ [10]
  Relative viability: 85%

## Nc1ccccc1Sc1cccc2c1C(=O)c1cccc(Sc3ccccc3N)c1C2=O
BJ [11]
  Relative SEAP activity: 136%
BJ [12]
  Relative SEAP activity: 141%
BJ [13]
  Relative viability: 25%
NCI-H1299 [14]
  Relative SEAP activity: 59%
NCI-H1299 [15]
  Relative SEAP activity: 108%
BJ [16]
  Relative viability: 109%
BJ [17]
  Relative viability: 108%
BJ [18]
  Relative SEAP activity: 115%
NCI-H1299 [19]
  Relative viability: 50%
BJ [20]
  Relative viability: 107%
NCI-H1299 [21]
  Relative SEAP activity: 96%
BJ [22]
  Relative viability: 48%
BJ [23]
  Relative SEAP activity: 122%
BJ [24]
  Relative viability: 103%
BJ [25]
  Relative SEAP activity: 103%
NCI-H1299 [26]
  Relative viability: 14%
NCI-H1299 [27]
  Relative viability: 94%
BJ [28]
  Relative SEAP activity: 102%

## O=C1c2cccc(Sc3ncccn3)c2C(=O)c2cccc(Sc3ncccn3)c21
NCI-H1299 [29]
  Relative SEAP activity: 137%
NCI-H1299 [30]
  Relative SEAP activity: 49%
NCI-H1299 [31]
  Relative SEAP activity: 105%
BJ [32]
  Relative SEAP activity: 61%
NCI-H1299 [33]
  Relative SEAP activity: 110%
NCI-H1299 [34]
  Relative viability: 44%
NCI-H1299 [35]
  Relative viability: 104%
NCI-H1299 [36]
  Relative viability: 99%
BJ [37]
  Relative SEAP activity: 125%
BJ [38]
  Relative viability: 73%
BJ [39]
  Relative viability: 103%
NCI-H1299 [40]
  Relative viability: 107%

## O=C1c2cccc(SCC(O)CO)c2C(=O)c2cccc(SCC(O)CO)c21 (stereo not drawn)
BJ [41]
  Relative viability: 86%
NCI-H1299 [42]
  Relative SEAP activity: 90%
NCI-H1299 [43]
  Relative viability: 103%
NCI-H1299 [44]
  Relative SEAP activity: 105%
NCI-H1299 [45]
  Relative viability: 102%
BJ [46]
  Relative SEAP activity: 142%
NCI-H1299 [47]
  Relative viability: 83%
BJ [48]
  Relative viability: 79%
NCI-H1299 [49]
  Relative SEAP activity: 81%
BJ [50]
  Relative SEAP activity: 144%
BJ [51]
  Relative SEAP activity: 136%

## O=C1c2cccc(Sc3ccncc3)c2C(=O)c2cccc(Sc3ccncc3)c21
NCI-H1299 [29]
  Relative SEAP activity: 98%
NCI-H1299 [30]
  Relative SEAP activity: 89%
NCI-H1299 [31]
  Relative SEAP activity: 104%
BJ [32]
  Relative SEAP activity: 121%
NCI-H1299 [33]
  Relative SEAP activity: 103%
NCI-H1299 [34]
  Relative viability: 29%
NCI-H1299 [35]
  Relative viability: 112%
NCI-H1299 [36]
  Relative viability: 45%
BJ [37]
  Relative SEAP activity: 133%
BJ [38]
  Relative viability: 55%
BJ [39]
  Relative viability: 91%
NCI-H1299 [40]
  Relative viability: 79%
